Measured values from US4652638A, “3-O-acyl-4"-deoxydesmycosin derivatives” (Toyo Jozo Kabushiki Kaisha, priority 1983, dated 1987).
≈ marks a conversion by molar mass, not a printed value. Read-outs that look alike come from different tables or passages of the source.

Experiments:
Assay in all cases: MIC (minimum inhibitory concentration)
Type in all cases: cell-based
[1] = tested on: Salmonella enteritidis Gaertner; details: Salmonella enterica
[2] = tested on: Pseudomonas aeruginosa IAM 1095; details: IAM1095
[3] = tested on: Streptococcus pyogenes N.Y.5
[4] = tested on: Escherichia coli NIHJ-JC2; details: NIHJJC2
[5] = tested on: Bacillus subtilis ATCC 6633; details: ATCC6633
Proteus vulgaris OX19 = tested on: Proteus vulgaris OX19
[6] = tested on: Streptococcus pyogenes 1022*; details: Streptococcus pyogenes
[7] = tested on: Staphylococcus aureus ATCC 6538P; details: ATCC6538P
[8] = tested on: Staphylococcus epidermidis sp-al-1; details: SPAL1
[9] = tested on: Staphylococcus aureus 0119*; details: Staphylococcus aureus
[10] = tested on: Staphylococcus aureus MS353 A0*; details: * clinical isolate, macrolide-resistant bacteria A group
[11] = tested on: Staphylococcus aureus MS353 C36; details: MS353C36
Sarcina lutea ATCC 9341 = details: Micrococcus luteus, ATCC9341; Sarcina lutea ATCC 9341; read-out: MIC
[12] = tested on: Corynebacterium diphtheriae P.Y.8
[13] = tested on: Streptococcus agalaactiae 1020
Shigella sonnei E33 = tested on: Shigella sonnei E33
[14] = tested on: Micrococcus flavus ATCC 10240; details: ATCC10240
[15] = tested on: Staphylococcus aureus MS353
[16] = tested on: Staphylococcus aureus 0127*; details: Staphylococcus aureus
[17] = tested on: Shigella flexineri type 3a; details: TYPE3A
Salmonella typhosa H901 = details: Salmonella enterica, TYPHOSA
[18] = tested on: Streptococcus faecalis 1501; details: Enterococcus faecalis
[19] = tested on: Klebsiella pneumoniae ATCC 10031; details: ATCC10031
Escherichia coli B = tested on: Escherichia coli B
Serratia marcescens = tested on: Serratia marcescens
[20] = Escherichia coli NIHJ-JC2, read-out: MIC
[21] = Escherichia coli B, read-out: MIC

Row | Structure (SMILES) | MIC ([1]; ENTERITIDIS) [µg/mL] | MIC ([2]; Pseudomonas aeruginosa) [µg/mL] | MIC [3] [µg/mL] | MIC [4, 20] [µg/mL] | MIC ([5]; Bacillus subtilis) [µg/mL] | MIC (Proteus vulgaris OX19) [µg/mL] | MIC [6] [µg/mL] | MIC [7] [µg/mL] | MIC ([8]; Staphylococcus epidermidis) [µg/mL] | MIC [9] [µg/mL] | MIC [10] [µg/mL] | MIC [11] [µg/mL] | MIC (Sarcina lutea ATCC 9341) [µg/mL] | MIC [12] [µg/mL] | MIC ([13]; Streptococcus, 1020) [µg/mL] | MIC (Shigella sonnei E33) [µg/mL] | MIC [15] [µg/mL] | MIC [16] [µg/mL] | MIC [17] [µg/mL] | MIC (Salmonella typhosa H901) [µg/mL] | also measured
1 | CC[C@H]1OC(=O)[C@H](C)[C@@H](O[C@H]2C[C@@](C)(OC)[C@@H](O)[C@H](C)O2)[C@H](C)[C@@H](O[C@@H]2O[C@H](C)C[C@H](N(C)C)[C@H]2O)[C@](C)(O)C[C@@H](C)C(=O)[C@H](C)[C@@H](O)[C@]1(C)O [Erythromycin, reference compound] | 100 (≈ 136 µM) | 100 (≈ 136 µM) | ≤ 0.05 | 100 (≈ 136 µM) | 0.1 (≈ 0.136 µM) | 50 (≈ 68.1 µM) | > 100 | 0.2 (≈ 0.273 µM) | 0.2 (≈ 0.273 µM) | > 100 | > 100 | > 100 | ≤ 0.05 | ≤ 0.05 | ≤ 0.05 | 100 (≈ 136 µM) | 0.2 (≈ 0.273 µM) | > 100 | 12.5 (≈ 17 µM) | 100 (≈ 136 µM) | MIC ([14]; Micrococcus flavus): 0.1 µg/mL (≈ 0.136 µM); MIC [18]; 1501: 0.2 µg/mL (≈ 0.273 µM); MIC ([19]; Klebsiella pneumoniae): 6.3 µg/mL (≈ 8.58 µM); MIC (Escherichia coli B; [21]): > 100 µg/mL; MIC (Serratia marcescens): 100 µg/mL (≈ 136 µM)
2 | CCC1OC(=O)CC(OC(=O)CC(C)C)C(C)C(OC2OC(C)C(O)C(N(C)C)C2O)C(CC=O)CC(C)C(=O)C=CC(C)=CC1COC1OC(C)CC(OC)C1OC (centres unmarked) [Example 4, 3-O-isovaleryl-4"-deoxydesmycosin] | – | – | ≤ 0.05 | > 100 | – | – | > 100 | 0.4 (≈ 0.476 µM) | – | > 100 | > 100 | 0.4 (≈ 0.476 µM) | ≤ 0.05 | – | – | > 100 | 0.4 (≈ 0.476 µM) | > 100 | 50 (≈ 59.5 µM) | > 100 | MIC ([1]; Salmonella enteritidis Gaertner, read-out: MIC): > 100 µg/mL; MIC ([2]; Pseudomonas aeruginosa IAM 1095, read-out: MIC): > 100 µg/mL; MIC ([5]; Bacillus subtilis ATCC 6633, read-out: MIC): 0.2 µg/mL (≈ 0.238 µM); MIC (Proteus vulgaris OX19; read-out: MIC): 50 µg/mL (≈ 59.5 µM); MIC ([8]; Staphylococcus epidermidis sp-al-1, read-out: MIC): 0.1 µg/mL (≈ 0.119 µM); MIC ([12]; read-out: MIC): ≤ 0.05 µg/mL; MIC ([13]; Streptococcus agalaactiae 1020, read-out: MIC): ≤ 0.05 µg/mL; MIC ([14]; Micrococcus flavus ATCC 10240, read-out: MIC): ≤ 0.05 µg/mL; MIC ([18]; Streptococcus faecalis 1501, read-out: MIC): 0.4 µg/mL (≈ 0.476 µM); MIC ([19]; Klebsiella pneumoniae ATCC 10031, read-out: MIC): 25 µg/mL (≈ 29.8 µM); MIC (Escherichia coli B; [21]): > 100 µg/mL; MIC (Serratia marcescens; read-out: MIC): > 100 µg/mL
3 | CC[C@H]1OC(=O)C[C@@H](O)[C@H](C)[C@@H](O[C@@H]2O[C@H](C)[C@@H](O[C@H]3C[C@@](C)(O)[C@@H](O)[C@H](C)O3)[C@H](N(C)C)[C@H]2O)[C@@H](CC=O)C[C@@H](C)C(=O)/C=C/C(C)=C/[C@@H]1CO[C@@H]1O[C@H](C)[C@@H](O)[C@@H](OC)[C@H]1OC [Tylosin, reference compound] | > 100 | > 100 | 0.1 (≈ 0.109 µM) | – | 0.2 (≈ 0.218 µM) | > 100 | > 100 | – | 0.4 (≈ 0.437 µM) | > 100 | > 100 | 0.4 (≈ 0.437 µM) | ≤ 0.05 | ≤ 0.05 | 0.2 (≈ 0.218 µM) | > 100 | 0.8 (≈ 0.873 µM) | > 100 | 50 (≈ 54.6 µM) | > 100 | MIC ([4]; Escherichia coli): > 100 µg/mL; MIC ([14]; Micrococcus flavus): ≤ 0.05 µg/mL; MIC [18]; 1501: 0.8 µg/mL (≈ 0.873 µM); MIC ([19]; Klebsiella pneumoniae): 50 µg/mL (≈ 54.6 µM); MIC (Escherichia coli B; Escherichia coli): > 100 µg/mL; MIC (Serratia marcescens): > 100 µg/mL
